In test [1] the target is E. coli LipB (EcLipB) (Escherichia coli, UniProt P60720). As to conditions: CoA:LipB 10:1 (STD, 283 K) or 8:1 (31P, 298 K), 50 mM Tris, 200 mM NaCl, pH 7.8.
Test [2] addresses MmLipT2 (mice LipT2) (Mus musculus, UniProt Q9D009). Conditions: 75 μM C8-CoA, 25 μM GcvH, 50 mM Tris-HCl, 500 mM NaCl, pH 8.0, 37 °C.

MmLipT2 (mice LipT2), sequence (Q9D009 whole entry): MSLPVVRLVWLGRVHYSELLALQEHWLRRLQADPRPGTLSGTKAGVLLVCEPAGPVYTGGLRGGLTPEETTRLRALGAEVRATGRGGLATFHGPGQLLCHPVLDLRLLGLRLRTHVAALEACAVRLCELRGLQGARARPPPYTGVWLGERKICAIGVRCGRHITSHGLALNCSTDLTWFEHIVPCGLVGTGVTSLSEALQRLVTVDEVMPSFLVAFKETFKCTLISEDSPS
E. coli LipB (EcLipB), sequence (P60720 whole entry): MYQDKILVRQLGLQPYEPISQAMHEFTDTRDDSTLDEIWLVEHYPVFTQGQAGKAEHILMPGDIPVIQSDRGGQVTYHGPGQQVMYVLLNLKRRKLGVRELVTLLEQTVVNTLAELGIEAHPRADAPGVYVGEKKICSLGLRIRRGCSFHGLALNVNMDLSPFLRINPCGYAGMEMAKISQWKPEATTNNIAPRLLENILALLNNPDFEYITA

For `CC(C)(COP(=O)(O)OP(=O)(O)OC[C@H]1O[C@@H](n2cnc3c(N)ncnc32)[C@H](O)[C@@H]1OP(=O)(O)O)[C@@H](O)C(=O)NCCC(=O)NCCS` [CoA], in test [1], the “1H STD NMR; 31P NMR” value is “suggesting binding of the adenosine ring”.
In the case of `CCCCCCCC(=O)SCCNC(=O)CCNC(=O)[C@H](O)C(C)(C)COP(=O)(O)OP(=O)(O)OC[C@H]1O[C@@H](n2cnc3c(N)ncnc32)[C@H](O)[C@@H]1OP(=O)(O)O` [C8-CoA], the “octanoyl transfer to E. coli GcvH, SDS-PAGE band shift and HPLC” value in test [2] is given as “MmLipT2 also successfully converted E. coli GcvH using C8-CoA as a donor substrate”.

For the origin of these results see PMC9307952, “Lipoate protein ligase B primarily recognizes the C8-phosphopantetheine arm of its donor substrate and weakly binds the acyl carrier protein” (The Journal of Biological Chemistry, 2022).
